In patent US20250275993A1, “GLYCOSYLATION INHIBITORS AS THERAPEUTICS FOR STROKE” (The Regents of the University of California, priority 2022, published 2025):
“Also recorded” adds a separate entry of the source.

Columns and labels:
[1] = tested on: bovine choroidal microvascular endothelial cells (BCEC); assay: BCEC proliferation assay (AlamarBlue / crystal violet); format: cell-based; details: for stimulation of BCEC proliferation by other hexosamines and structurally related molecules: with or without VEGF, tested alongside ManN
Experimental: The effect of ManN on EC proliferation was assessed.
AlamarBlue detects mitochondria activity as an indication of cell viability which correlates with cell number at certain ranges.
Proliferation assays with BCECs and BRECs were performed. Log-phase growing BCECs or BRECs (passage <10) were trypsinized, re-suspended and seeded in 96-well plates (no coating) in low-glucose DMEM supplemented with 10% bovine calf serum, 2 mM glutamine, and antibiotics (growth medium), at a density of 1200-1500 cells per well in 200 μl volume. All reagents were added at the indicated final concentrations. After 3-6 days, cells were incubated with AlamarBlue for 4 hrs. Fluorescence was measured at 530 nm excitation wavelength and 590 nm emission wavelength. The experiments were repeated at least three times. […] 20% methanol or 0.05% DMSO served as negative controls. […] Human RMVECs and human adult DMVECs were split into Gelatin-coated 96 wells (2000 cells per well) in low glucose DMEM containing 10% FBS. 1200 cells/well was set up for proliferation assay in low glucose media containing 0.5% FBS. Data was collected at day 4 or 5. HUVEC (p7-10) were grown on gelatin-coated plate until it reached 70-80% confluency.
On the day of the assay, cells were dissociated with 0.05% trypsin, which was neutralized with 0.5% FBS-containing EBM. Cells were briefly spun and then re-suspended in 0.5% FBS-media. Cells were counted and plated in 96-well, 1000 cells/well. Triplicate wells were used for each treatment. Data were collected at day 3, and then cells were fixed in 4% paraformaldehyde for 15 min before adding crystal violet. Cell-covered areas were quantified after taking pictures by Image J software.

[2] = tested on: Bip, CHOP, ATF-6; assay: Western blot of UPR responsive proteins in BCECs; format: cell-based, bovine; details: for restoration of ATF-6 expression: ManN at 400 μM
[3] = tested on: BCEC confluent monolayers; assay: BCEC scratch assay; format: cell-based, bovine; details: over 48 hours relative to control
Experimental: BCECs (passage 6-10) and HUVEC (passage 6-8) were used in this assay. Cells were grown until about 80% confluency in 6-well plates, washed twice with PBS and then starved in serum-free DMEM (low Glucose, Hyclone) for 5 hrs before making a “scratch” using 1 ml tip. Cell monolayers were briefly washed once with serum-free media, followed by various treatments in media containing 1% FBS. 48 hrs later, the assay was stopped by adding 2 ml 4% paraformaldehyde. 20 min later, fixed cells were stained with 1 ml Crystal Violet (Sigma). Plates were washed gently under the running tap water and air-dried before taking pictures. Images were acquired by ZEISS Discovery […] microscopy equipped with […] camera. Quantification of wound closure was done using AxioVision LE Rel.4.4 software. Six images were taken for each sample and six measurements (in pixel) were made on each image using AxioVision LE Re1.4.4 software.

[4] = tested on: ERK, AKT, mTOR, CREB, ACC and eNOS; assay: Western blot of signal transduction pathways in BCECs; format: cell-based, bovine; details: 40 μM
Experimental: Cells were allowed to reach-80% confluency in 12-well plates. […] At various time points, plates were taken out of the incubator and kept on ice. […] Lysates were collected and mixed with 4× Bolt LDS Sample Buffer (Novex, Carlsbad, CA) in the presence of Halt protease inhibitors and phosphatase inhibitor cocktail (ThermoFisher scientific, #NP0007). […] HUVECs (passage 6-8) were plated in EBM-2 basal medium (Lonza) with 0.2% FBS. Following overnight culture, cells were serum-starved in EBM-2 medium for 4 hrs prior to treatment with 50 ng/ml of VEGF165 or vehicle controls for various lengths. Equal amounts of protein lysates were analyzed by SDS-PAGE and blotted with the indicated antibodies. Proteins were transferred using Tris-Glycine buffer with 20% Methanol (Proteonomics grade) (Apex BioResearch Products). Membranes were first incubated with 5% milk in TBST, pH 7.6 (TEKnova, Hollister, CA), followed by blotting with primary and secondary antibodies. ECL anti-rabbit IgG, horseradish peroxidase linked whole antibody from donkey or sheep anti-mouse were obtained from GE Healthcare (UK limited). SuperSignal West Dura Extended Duration substrate was from ThermoFisher Scientific. In some cases, the same PVDF membranes were stripped by 8-min incubation in the Restore Plus Western Blot Stripping Buffer (ThermoFisher Scientific) to show total specific protein expression, followed by second stripping for (3-actin expression.

[5] = tested on: JNK/c-jun; assay: Western blot of JNK pathway activation in BCECs; format: cell-based, bovine; details: 40 μM; BCECs; FIG. 7E
Experimental: (§1) Cells were allowed to reach-80% confluency in 12-well plates. […] At various time points, plates were taken out of the incubator and kept on ice. Cell monolayers were first washed once with ice-cold PBS before lysis with 250 μI of Pierce RIPA buffer (ThermoFisher Scientific, Rockford, IL) or use 50 mM Tris-HCl (pH 7.6), 150 mM NaCl, 10% Glycerol, 1% NP-40 containing protease/Phosphatase inhibitor cocktail (100×) (Cell signaling, #5872). Lysates were collected and mixed with 4× Bolt LDS Sample Buffer (Novex, Carlsbad, CA) in the presence of Halt protease inhibitors and phosphatase inhibitor cocktail (ThermoFisher scientific, #NP0007). The samples were subjected to SDS-PAGE (Bolt 4-12% Bis-Tris Plus, Invitrogen) using Bolt MES SDS running buffer or NuPAGE 3-8% Tris-Acetate gel using Tris-Acetate SDS running buffer (Novex). HUVECs (passage 6-8) were plated in EBM-2 basal medium (Lonza) with 0.2% FBS. Following overnight culture, cells were serum-starved in EBM-2 medium for 4 hrs prior to treatment with 50 ng/ml of VEGF165 or vehicle controls for various lengths. Equal amounts of protein lysates were analyzed by SDS-PAGE and blotted with the indicated antibodies. Proteins were transferred using Tris-Glycine buffer with 20% Methanol (Proteonomics grade) (Apex BioResearch Products). Membranes were first incubated with 5% milk in TBST, pH 7.6 (TEKnova, Hollister, CA), followed by blotting with primary and secondary antibodies. ECL anti-rabbit IgG, horseradish peroxidase linked whole antibody from donkey or sheep anti-mouse were obtained from GE Healthcare (UK limited). SuperSignal West Dura Extended Duration substrate was from ThermoFisher Scientific. In some cases, the same PVDF membranes were stripped by 8-min incubation in the Restore Plus Western Blot Stripping Buffer (ThermoFisher Scientific) to show total specific protein expression, followed by second stripping for (3-actin expression.

[6] = tested on: ERK and AKT; assay: Western blot of ERK and AKT activation in HUVEC and hDMVECs; format: cell-based, human; details: 40 μM
Experimental: as §1, with “Membranes were first incubated with 5% milk in TBST, pH 7.6 (TEKnova, Hollister, CA), followed by blotting with primary and secondary antibodies. ECL anti-rabbit IgG, horseradish peroxidase linked whole antibody from donkey or sheep anti-mouse were obtained from GE Healthcare (UK limited). SuperSignal West Dura Extended Duration substrate was from ThermoFisher Scientific. In some cases, the same PVDF membranes were stripped by 8-min incubation in the Restore Plus Western Blot Stripping Buffer (ThermoFisher Scientific) to show total specific protein expression, followed by second stripping for (3-actin expression.” left out

[7] = tested on: retinal vasculature; assay: Retinal neovascularization after intravitreal injection; format: in vivo, mouse; details: 500 ng ManN or Kif, 200 ng bFGF intravitreally; after seven days
Experimental: The effect of ManN and Kif on inducing retinal neovascularization was assessed. The findings in cultured eye-derived EC were extended to a suitable in vivo model system. The mouse retina has been used extensively over the past decades to study both physiological and pathological angiogenesis. To obtain a detailed description of the retinal vasculature, images from retinal flat mounts were processed for vascular area fraction (ratio of area covered by blood vessels to total retinal area). Using this model, the effects of ManN in retinal neovascularization were assessed. Kif was also tested in this model because it is a water-soluble inhibitor and its mechanism of glycosylation inhibition is well established. In addition, it shares with ManN the ability to activate ERK, AKT and stress pathways in BCEC (FIG. 7E).
Assessment of retinal angiogenesis following intravitreal administration was done. Briefly, 6-8 weeks old C57BL/6 male mice were randomly allocated to different groups and anesthetized with ketamine/Xylazine cocktail. The indicated amounts of ManN, Kif or bFGF (R&D systems, AF-233-NA) in 1 μl of PBS and PBS vehicle control were injected intravitreally with a 33-gauge Hamilton syringe. Seven days after injection, animals were euthanized. Eyes were then enucleated and fixed in 4% paraformaldehyde (PFA) for 30 mins. Retinas were separated and stained with anti-CD31 immunofluorescence (IF) to evidence the vasculature. Evaluations were performed by an investigator blinded to the treatment. For CD31 IF, rat anti-mouse antibody (BD Biosciences, CAT #550274) was diluted 1:100 and incubated overnight at 4° C. After 4-hour incubation with the Alexa Fluor-488-conjugated anti-rat antibody (Life Technologies, A11006), whole mounts were imaged via the 488 nm channel using AIR Confocal STORM super-resolution system (Nikon). Quantification of vascular density in choroids and retina was carried out by Image J. Each experiment was repeated three times with similar results, and each treatment group consists of 5 individual samples.

O=C(O)CCCc1ccccc1 [4-PBA, 4-phenylbutyric acid]
reversal of ManN activity on BCEC proliferation by chaperone ([1]; pre-treating with 1 mM 4-PBA for 4 hours, absence or presence of VEGF): effectively reverse the bell-shaped activity of ManN on BCEC proliferation
effect of chaperone on ManN/VEGF additivity and ManN toxicity ([1]; pre-treatment with 1 mM 4-PBA for 8 hours, FIG. 5D): abrogated additive effects of 40 μM ManN and 5 ng/ml VEGF and protected cells from toxic effect induced by 2 mM ManN
prevention of CHOP induction by ManN ([2]; 2 mM 4-PBA or 500 µM TUDCA, ManN at 400 μM and 5 mM): could prevent the induction of CHOP expression
restoration of ATF-6 expression [2]: restore the expression of ATF-6

O[C@H]1[C@H](O)[C@@H](O)CN2CC[C@H](O)[C@H]12 [Cas, Castanospermine]
BCEC proliferation by glycosylation inhibitors ([1]; 0.01 to 100 μM, 3 days, absence or presence of 5 ng/ml VEGF): stimulated in a dose-dependent fashion
gap closing in BCEC scratch assay by glycosylation inhibitors [3]: significant activity
activation of ERK and AKT in BCECs by glycosylation inhibitors ([4]; FIG. 7E): less obvious; also recorded: did not activate ERK
activation of the JNK pathway by glycosylation inhibitors [5]: able to activate the JNK pathway
Bip expression by glycosylation inhibitors ([2]; media without growth factors for 24 hours): dose-dependent induction of Bip expression
activation of ERK and AKT in human ECs by glycosylation inhibitors [6]: less obvious

Cl.NCC(=O)[C@@H](O)[C@H](O)[C@H](O)CO [D-isoglucosamine, 1-Amino-1-deoxy-D-Fructose hydrochloride]
stimulation of BCEC proliferation by other hexosamines and structurally related molecules [1]: None of these molecules stimulated BCEC proliferation

CC(=O)N[C@@H]1C(O)O[C@H](CO)[C@@H](O)[C@@H]1O (stereo partly drawn) [ManNAc, N-Acetyl-D-Mannosamine, reference compound]
activation of ERK, AKT, mTOR, CREB, ACC and eNOS by other sugars ([4]; BCECs, FIG. 2C): induced a similar activation

CC(=O)N[C@H]1[C@H]([C@H](O)[C@H](O)CO)OC(O)(C(=O)O)C[C@@H]1O (stereo partly shown) [N-Acetylneuraminic acid]
stimulation of BCEC proliferation by other hexosamines and structurally related molecules [1]: None of these molecules stimulated BCEC proliferation

C[C@H](CCC(=O)NCCS(=O)(=O)O)[C@H]1CC[C@H]2[C@@H]3[C@@H](O)C[C@@H]4C[C@H](O)CC[C@]4(C)[C@H]3CC[C@]12C [TUDCA, tauroursodeoxycholic acid]
restoration of ATF-6 expression [2]: much weaker

N[C@H]1C(O)O[C@H](CO)[C@H](O)[C@@H]1O (stereo partly drawn) [galactosamine, D-(+)-Galactosamine]
stimulation of BCEC proliferation by other hexosamines and structurally related molecules [1]: none of these hexosamines had significant stimulatory effects

N[C@H]1C(O)O[C@H](CO)[C@@H](O)[C@@H]1O (stereo partly drawn) [glucosamine, D-(+)-Glucosamine]
stimulation of BCEC proliferation by other hexosamines and structurally related molecules [1]: none of these hexosamines had significant stimulatory effects

CNC[C@H](O)[C@@H](O)[C@H](O)[C@H](O)CO [meglumine, Meglumine]
stimulation of BCEC proliferation by other hexosamines and structurally related molecules [1]: None of these molecules stimulated BCEC proliferation

C[C@@H](O[C@H]1[C@H](O)[C@@H](CO)OC(O)[C@@H]1N)C(=O)O (stereo partly shown) [muramic acid, Muramic acid]
stimulation of BCEC proliferation by other hexosamines and structurally related molecules [1]: None of these molecules stimulated BCEC proliferation

bFGF: bFGF purchased from R&D systems, positive control
increase in density of retinal vessels vs PBS group [7]: about 35%
